Experimental data from US20230295119A1, “SUBSTITUTED PYRIDINES FOR THE TREATMENT OF INFLAMMATORY DISEASES” (GOSSAMER BIO SERVICES, INC., priority 2020, published 2023).

biological target: human JAK1 (Homo sapiens (Human), UniProt P23458); assay: JAK1 TR-FRET kinase assay; assay type: biochemical; conditions: TR-FRET, JAK1 2.5 nM
Sequence (P23458 whole entry): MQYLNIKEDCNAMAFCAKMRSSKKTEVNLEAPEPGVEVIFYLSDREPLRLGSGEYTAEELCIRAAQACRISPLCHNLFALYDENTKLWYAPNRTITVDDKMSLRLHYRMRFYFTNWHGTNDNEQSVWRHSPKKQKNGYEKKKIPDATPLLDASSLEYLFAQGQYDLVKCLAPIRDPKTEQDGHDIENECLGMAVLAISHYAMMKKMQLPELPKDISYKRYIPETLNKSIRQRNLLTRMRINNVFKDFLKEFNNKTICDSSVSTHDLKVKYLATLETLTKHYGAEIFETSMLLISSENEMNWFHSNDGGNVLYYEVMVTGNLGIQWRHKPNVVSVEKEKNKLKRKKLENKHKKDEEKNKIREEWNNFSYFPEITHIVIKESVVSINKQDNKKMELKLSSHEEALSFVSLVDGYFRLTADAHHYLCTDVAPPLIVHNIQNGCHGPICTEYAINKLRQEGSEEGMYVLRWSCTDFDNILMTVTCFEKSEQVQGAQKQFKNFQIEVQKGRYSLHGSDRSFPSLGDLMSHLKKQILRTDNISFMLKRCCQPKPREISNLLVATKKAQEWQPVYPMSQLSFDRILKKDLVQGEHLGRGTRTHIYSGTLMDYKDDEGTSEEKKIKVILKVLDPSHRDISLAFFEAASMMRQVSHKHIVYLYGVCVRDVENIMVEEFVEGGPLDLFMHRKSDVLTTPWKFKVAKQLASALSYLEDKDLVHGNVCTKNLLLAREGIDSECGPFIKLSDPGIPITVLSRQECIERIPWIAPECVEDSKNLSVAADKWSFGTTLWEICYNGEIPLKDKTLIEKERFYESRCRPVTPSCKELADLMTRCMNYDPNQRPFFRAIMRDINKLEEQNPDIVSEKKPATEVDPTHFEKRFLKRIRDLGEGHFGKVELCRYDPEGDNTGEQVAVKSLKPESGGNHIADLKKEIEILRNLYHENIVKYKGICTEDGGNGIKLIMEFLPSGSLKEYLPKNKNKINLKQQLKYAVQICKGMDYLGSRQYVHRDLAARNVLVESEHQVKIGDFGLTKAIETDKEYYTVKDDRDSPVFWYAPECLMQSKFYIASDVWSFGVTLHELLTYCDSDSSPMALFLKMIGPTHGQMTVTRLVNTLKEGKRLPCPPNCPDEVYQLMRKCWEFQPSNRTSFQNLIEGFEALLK

| IC50 [nM] | Structure (SMILES) |
| --- | --- |
| ≥ 500 | CCC(=O)c1cnc(Nc2ccc(C(C)N)cn2)cc1Nc1cccc(-c2ncn(C)n2)c1OC (centres unmarked) [Compound 9G] |
| ≥ 500 | CCC(=O)c1cnc(Nc2ccc([C@@H](C)N3CC(O)C3)cn2)cc1Nc1cccc(-c2ncn(C)n2)c1OC [Compound 9HH] |
| ≥ 500 | CCC(=O)c1cnc(Nc2ccc(C(C)NC)cn2)cc1Nc1cccc(-c2ncn(C)n2)c1OC (centres unmarked) [Compound 9H] |
| ≥ 500 | CCC(=O)c1cnc(Nc2ccc(CN3CCCC3)cn2)cc1Nc1cccc(-c2ncn(C)n2)c1OC [Compound 9II] |
| ≥ 500 | CCC(=O)c1cnc(Nc2ccc(C(C)N(C)C)cn2)cc1Nc1cccc(-c2ncn(C)n2)c1OC (centres unmarked) [Compound 9I] |
| ≥ 500 | CCC(=O)c1cnc(Nc2ccc(CN3CC[C@@H](F)C3)cn2)cc1Nc1cccc(-c2ncn(C)n2)c1OC [Compound 9JJ] |
| ≥ 500 | CCC(=O)c1cnc(Nc2ccc([C@@H](C)N(C)C)cn2)cc1Nc1cccc(-c2ncn(C)n2)c1OC [Compound 9J] |
| ≥ 500 | CCC(=O)c1cnc(Nc2ccc(CN3CC[C@H](F)C3)cn2)cc1Nc1cccc(-c2ncn(C)n2)c1OC [Compound 9KK] |
| ≥ 500 | CCC(=O)c1cnc(Nc2ccc([C@H](C)N(C)C)cn2)cc1Nc1cccc(-c2ncn(C)n2)c1OC [Compound 9K] |

The remaining lines, values behind:

| Structure (SMILES) | IC50 [nM] |
| --- | --- |
| CCC(=O)c1cnc(Nc2cccc(CN3CCOCC3)n2)cc1Nc1cccc(-c2ncn(C)n2)c1OC [Compound 9HHHH] | ≥ 500 |
| CCC(=O)c1cnc(Nc2ccc(CN(C)C)nn2)cc1Nc1cccc(-c2ncn(C)n2)c1OC [Compound 9HHH] | ≥ 500 |
| CCC(=O)c1cnc(Nc2cc(CN3CCCC3)ccn2)cc1Nc1cccc(-c2ncn(C)n2)c1OC [Compound 9IIII] | ≥ 500 |
| CCC(=O)c1cnc(Nc2ccc(C(C)N)nn2)cc1Nc1cccc(-c2ncn(C)n2)c1OC (centres unmarked) [Compound 9III] | ≥ 500 |
| CCC(=O)c1cnc(Nc2cc(CN3CCCCC3)ccn2)cc1Nc1cccc(-c2ncn(C)n2)c1OC [Compound 9JJJJ] | ≥ 500 |
| CCC(=O)c1cnc(Nc2ccc(C(C)NC)nn2)cc1Nc1cccc(-c2ncn(C)n2)c1OC (centres unmarked) [Compound 9JJJ] | ≥ 500 |
| CCC(=O)c1cnc(Nc2cc(CN3CCOCC3)ccn2)cc1Nc1cccc(-c2ncn(C)n2)c1OC [Compound 9KKKK] | ≥ 500 |
| CCC(=O)c1cnc(Nc2ccc(C(C)N(C)C)nn2)cc1Nc1cccc(-c2ncn(C)n2)c1OC (centres unmarked) [Compound 9KKK] | ≥ 500 |

biological target: TYK2 JH2 domain (Homo sapiens (Human), UniProt P29597); assay: TYK2 JH2 NanoBRET assay; assay type: binding; conditions: Table 20, read-out: TYK2 IC50
Description: HEK293T cells were transfected with NanoLuc-TYK2 JH2 Fusion Vector (Promega, customized) using Trans-IT reagent (Mirus, #MIR2700) and incubated for overnight in 37° C. incubator. […] Add 85 µL of cell suspension into white, polypropylene, 96-well plates (Corning, #3600). 90 µL of cells were used for no tracer control samples. 5 µL of diluted NanoBRET K10 tracer (Promega, #CS1810C122) were added to cells to a final concentration of 0.5 µM. Test compounds were diluted into DMSO, and then phenol-free opti-MEM to 10X of final concentration. 10 µL of diluted compounds were added into each well. The cells were incubated with test compound and tracer for 2 hours. 3XNanoBRET® Nano-Glo® Substrate and Extracellular NanoLuc® Inhibitor mixture were prepared and 50 µL of the mixture were added into the wells and mixed. […] NanoBRET signal was determined by using the ratio of acceptor signal and donor signal.

TYK2 JH2 domain, sequence (P29597 589-875): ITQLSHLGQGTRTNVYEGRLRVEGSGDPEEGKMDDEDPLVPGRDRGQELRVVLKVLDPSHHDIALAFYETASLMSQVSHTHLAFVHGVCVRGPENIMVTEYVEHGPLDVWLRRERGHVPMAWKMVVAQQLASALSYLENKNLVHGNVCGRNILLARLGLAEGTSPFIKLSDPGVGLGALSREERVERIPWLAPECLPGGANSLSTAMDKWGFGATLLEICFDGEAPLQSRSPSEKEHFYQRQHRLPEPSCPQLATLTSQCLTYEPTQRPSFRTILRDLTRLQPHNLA

| IC50 [nM] | Structure (SMILES) |
| --- | --- |
| < 5 | CCC(=O)c1cnc(Nc2ccc(C(C)N)cn2)cc1Nc1cccc(-c2ncn(C)n2)c1OC (centres unmarked) [Compound 9G] |
| 5 to 50 | CCC(=O)c1cnc(Nc2ccc([C@@H](C)N3CC(O)C3)cn2)cc1Nc1cccc(-c2ncn(C)n2)c1OC [Compound 9HH] |
| < 5 | CCC(=O)c1cnc(Nc2ccc(C(C)NC)cn2)cc1Nc1cccc(-c2ncn(C)n2)c1OC (centres unmarked) [Compound 9H] |
| < 5 | CCC(=O)c1cnc(Nc2ccc(CN3CCCC3)cn2)cc1Nc1cccc(-c2ncn(C)n2)c1OC [Compound 9II] |
| < 5 | CCC(=O)c1cnc(Nc2ccc(C(C)N(C)C)cn2)cc1Nc1cccc(-c2ncn(C)n2)c1OC (centres unmarked) [Compound 9I] |
| < 5 | CCC(=O)c1cnc(Nc2ccc(CN3CC[C@@H](F)C3)cn2)cc1Nc1cccc(-c2ncn(C)n2)c1OC [Compound 9JJ] |
| < 5 | CCC(=O)c1cnc(Nc2ccc([C@@H](C)N(C)C)cn2)cc1Nc1cccc(-c2ncn(C)n2)c1OC [Compound 9J] |
| < 5 | CCC(=O)c1cnc(Nc2ccc(CN3CC[C@H](F)C3)cn2)cc1Nc1cccc(-c2ncn(C)n2)c1OC [Compound 9KK] |
| < 5 | CCC(=O)c1cnc(Nc2ccc([C@H](C)N(C)C)cn2)cc1Nc1cccc(-c2ncn(C)n2)c1OC [Compound 9K] |

Second part, the molecule before the results:

| Structure (SMILES) | IC50 [nM] |
| --- | --- |
| CCC(=O)c1cnc(Nc2cccc(CN3CCOCC3)n2)cc1Nc1cccc(-c2ncn(C)n2)c1OC [Compound 9HHHH] | < 5 |
| CCC(=O)c1cnc(Nc2ccc(CN(C)C)nn2)cc1Nc1cccc(-c2ncn(C)n2)c1OC [Compound 9HHH] | 5 to 50 |
| CCC(=O)c1cnc(Nc2cc(CN3CCCC3)ccn2)cc1Nc1cccc(-c2ncn(C)n2)c1OC [Compound 9IIII] | < 5 |
| CCC(=O)c1cnc(Nc2ccc(C(C)N)nn2)cc1Nc1cccc(-c2ncn(C)n2)c1OC (centres unmarked) [Compound 9III] | 5 to 50 |
| CCC(=O)c1cnc(Nc2cc(CN3CCCCC3)ccn2)cc1Nc1cccc(-c2ncn(C)n2)c1OC [Compound 9JJJJ] | < 5 |
| CCC(=O)c1cnc(Nc2ccc(C(C)NC)nn2)cc1Nc1cccc(-c2ncn(C)n2)c1OC (centres unmarked) [Compound 9JJJ] | 5 to 50 |
| CCC(=O)c1cnc(Nc2cc(CN3CCOCC3)ccn2)cc1Nc1cccc(-c2ncn(C)n2)c1OC [Compound 9KKKK] | < 5 |
| CCC(=O)c1cnc(Nc2ccc(C(C)N(C)C)nn2)cc1Nc1cccc(-c2ncn(C)n2)c1OC (centres unmarked) [Compound 9KKK] | < 5 |

biological target: human JAK2 (Homo sapiens (Human), UniProt O60674); assay: JAK2 TR-FRET kinase assay; assay type: biochemical; conditions: JAK2 0.025 nM
Sequence (O60674 whole entry): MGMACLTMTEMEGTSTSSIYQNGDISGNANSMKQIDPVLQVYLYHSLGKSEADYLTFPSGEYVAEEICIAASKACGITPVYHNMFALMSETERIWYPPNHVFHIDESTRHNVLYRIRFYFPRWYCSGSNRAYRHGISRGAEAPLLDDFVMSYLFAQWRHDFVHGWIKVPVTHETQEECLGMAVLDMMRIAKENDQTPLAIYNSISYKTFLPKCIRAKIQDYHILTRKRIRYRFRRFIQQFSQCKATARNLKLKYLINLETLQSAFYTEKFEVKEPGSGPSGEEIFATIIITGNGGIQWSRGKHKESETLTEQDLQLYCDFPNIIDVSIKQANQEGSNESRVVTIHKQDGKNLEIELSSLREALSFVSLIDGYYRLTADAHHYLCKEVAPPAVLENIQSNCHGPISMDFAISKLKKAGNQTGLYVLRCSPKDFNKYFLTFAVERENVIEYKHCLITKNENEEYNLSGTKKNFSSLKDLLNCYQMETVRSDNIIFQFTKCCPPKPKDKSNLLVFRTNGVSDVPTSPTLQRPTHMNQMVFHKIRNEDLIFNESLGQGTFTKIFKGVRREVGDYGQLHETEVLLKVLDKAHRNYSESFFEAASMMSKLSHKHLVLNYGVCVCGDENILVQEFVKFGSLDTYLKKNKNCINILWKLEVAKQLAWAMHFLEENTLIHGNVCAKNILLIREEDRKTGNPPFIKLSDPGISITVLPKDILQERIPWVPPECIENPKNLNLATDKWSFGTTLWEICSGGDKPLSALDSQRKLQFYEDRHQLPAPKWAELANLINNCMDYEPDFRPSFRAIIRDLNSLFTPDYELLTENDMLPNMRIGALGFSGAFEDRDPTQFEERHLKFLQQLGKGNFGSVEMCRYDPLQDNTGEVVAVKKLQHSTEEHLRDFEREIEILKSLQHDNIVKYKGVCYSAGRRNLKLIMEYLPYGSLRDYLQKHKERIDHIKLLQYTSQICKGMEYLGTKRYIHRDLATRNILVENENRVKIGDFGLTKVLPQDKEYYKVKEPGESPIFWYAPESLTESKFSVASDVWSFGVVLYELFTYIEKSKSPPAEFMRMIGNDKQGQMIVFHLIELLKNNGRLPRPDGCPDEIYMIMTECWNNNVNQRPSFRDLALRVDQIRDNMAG

| IC50 [nM] | Structure (SMILES) |
| --- | --- |
| ≥ 500 | CCC(=O)c1cnc(Nc2ccc(C(C)N)cn2)cc1Nc1cccc(-c2ncn(C)n2)c1OC (centres unmarked) [Compound 9G] |
| ≥ 500 | CCC(=O)c1cnc(Nc2ccc([C@@H](C)N3CC(O)C3)cn2)cc1Nc1cccc(-c2ncn(C)n2)c1OC [Compound 9HH] |
| ≥ 500 | CCC(=O)c1cnc(Nc2ccc(C(C)NC)cn2)cc1Nc1cccc(-c2ncn(C)n2)c1OC (centres unmarked) [Compound 9H] |
| ≥ 500 | CCC(=O)c1cnc(Nc2ccc(CN3CCCC3)cn2)cc1Nc1cccc(-c2ncn(C)n2)c1OC [Compound 9II] |
| ≥ 500 | CCC(=O)c1cnc(Nc2ccc(C(C)N(C)C)cn2)cc1Nc1cccc(-c2ncn(C)n2)c1OC (centres unmarked) [Compound 9I] |
| ≥ 500 | CCC(=O)c1cnc(Nc2ccc(CN3CC[C@@H](F)C3)cn2)cc1Nc1cccc(-c2ncn(C)n2)c1OC [Compound 9JJ] |
| ≥ 500 | CCC(=O)c1cnc(Nc2ccc([C@@H](C)N(C)C)cn2)cc1Nc1cccc(-c2ncn(C)n2)c1OC [Compound 9J] |
| ≥ 500 | CCC(=O)c1cnc(Nc2ccc(CN3CC[C@H](F)C3)cn2)cc1Nc1cccc(-c2ncn(C)n2)c1OC [Compound 9KK] |
| ≥ 500 | CCC(=O)c1cnc(Nc2ccc([C@H](C)N(C)C)cn2)cc1Nc1cccc(-c2ncn(C)n2)c1OC [Compound 9K] |

The next lines start with the molecule.

| Structure (SMILES) | IC50 [nM] |
| --- | --- |
| CCC(=O)c1cnc(Nc2cccc(CN3CCOCC3)n2)cc1Nc1cccc(-c2ncn(C)n2)c1OC [Compound 9HHHH] | ≥ 500 |
| CCC(=O)c1cnc(Nc2ccc(CN(C)C)nn2)cc1Nc1cccc(-c2ncn(C)n2)c1OC [Compound 9HHH] | ≥ 500 |
| CCC(=O)c1cnc(Nc2cc(CN3CCCC3)ccn2)cc1Nc1cccc(-c2ncn(C)n2)c1OC [Compound 9IIII] | 50 to 500 |
| CCC(=O)c1cnc(Nc2ccc(C(C)N)nn2)cc1Nc1cccc(-c2ncn(C)n2)c1OC (centres unmarked) [Compound 9III] | ≥ 500 |
| CCC(=O)c1cnc(Nc2cc(CN3CCCCC3)ccn2)cc1Nc1cccc(-c2ncn(C)n2)c1OC [Compound 9JJJJ] | ≥ 500 |
| CCC(=O)c1cnc(Nc2ccc(C(C)NC)nn2)cc1Nc1cccc(-c2ncn(C)n2)c1OC (centres unmarked) [Compound 9JJJ] | ≥ 500 |
| CCC(=O)c1cnc(Nc2cc(CN3CCOCC3)ccn2)cc1Nc1cccc(-c2ncn(C)n2)c1OC [Compound 9KKKK] | ≥ 500 |
| CCC(=O)c1cnc(Nc2ccc(C(C)N(C)C)nn2)cc1Nc1cccc(-c2ncn(C)n2)c1OC (centres unmarked) [Compound 9KKK] | ≥ 500 |

biological target: human JAK3 (Homo sapiens (Human), UniProt P52333); assay: JAK3 TR-FRET kinase assay; assay type: biochemical; conditions: JAK3 0.0125 nM
Sequence (P52333 whole entry): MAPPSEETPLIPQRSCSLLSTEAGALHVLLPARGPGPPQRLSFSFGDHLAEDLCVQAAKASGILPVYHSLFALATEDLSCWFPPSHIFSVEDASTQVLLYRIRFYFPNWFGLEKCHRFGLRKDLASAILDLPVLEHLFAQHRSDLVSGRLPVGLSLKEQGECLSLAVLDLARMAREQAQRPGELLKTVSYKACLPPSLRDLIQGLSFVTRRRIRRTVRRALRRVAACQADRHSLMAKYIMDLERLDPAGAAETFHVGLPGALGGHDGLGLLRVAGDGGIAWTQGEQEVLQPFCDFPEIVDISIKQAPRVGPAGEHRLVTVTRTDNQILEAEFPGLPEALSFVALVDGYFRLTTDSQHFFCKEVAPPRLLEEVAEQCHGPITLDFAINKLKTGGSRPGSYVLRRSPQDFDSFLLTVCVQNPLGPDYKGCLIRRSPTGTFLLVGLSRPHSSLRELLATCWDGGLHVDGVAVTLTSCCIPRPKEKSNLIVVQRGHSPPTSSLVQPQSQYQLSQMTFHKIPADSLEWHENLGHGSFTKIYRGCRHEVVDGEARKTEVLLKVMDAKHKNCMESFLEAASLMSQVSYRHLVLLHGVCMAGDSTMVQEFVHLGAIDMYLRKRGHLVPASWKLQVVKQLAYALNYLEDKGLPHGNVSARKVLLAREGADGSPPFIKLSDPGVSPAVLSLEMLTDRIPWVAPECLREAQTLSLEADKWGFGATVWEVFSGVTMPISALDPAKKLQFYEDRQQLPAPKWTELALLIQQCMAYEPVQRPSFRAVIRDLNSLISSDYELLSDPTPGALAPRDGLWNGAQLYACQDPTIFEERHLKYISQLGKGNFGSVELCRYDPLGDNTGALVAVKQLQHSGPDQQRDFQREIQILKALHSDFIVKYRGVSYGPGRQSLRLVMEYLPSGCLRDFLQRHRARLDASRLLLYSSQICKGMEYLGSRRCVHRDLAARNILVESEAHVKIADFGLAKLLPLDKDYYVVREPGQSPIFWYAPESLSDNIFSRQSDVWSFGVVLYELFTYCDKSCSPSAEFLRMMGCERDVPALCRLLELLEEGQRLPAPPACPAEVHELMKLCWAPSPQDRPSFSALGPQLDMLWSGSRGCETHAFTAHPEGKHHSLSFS

| IC50 [nM] | Structure (SMILES) |
| --- | --- |
| ≥ 500 | CCC(=O)c1cnc(Nc2ccc(C(C)N)cn2)cc1Nc1cccc(-c2ncn(C)n2)c1OC (centres unmarked) [Compound 9G] |
| ≥ 500 | CCC(=O)c1cnc(Nc2ccc([C@@H](C)N3CC(O)C3)cn2)cc1Nc1cccc(-c2ncn(C)n2)c1OC [Compound 9HH] |
| ≥ 500 | CCC(=O)c1cnc(Nc2ccc(C(C)NC)cn2)cc1Nc1cccc(-c2ncn(C)n2)c1OC (centres unmarked) [Compound 9H] |
| ≥ 500 | CCC(=O)c1cnc(Nc2ccc(CN3CCCC3)cn2)cc1Nc1cccc(-c2ncn(C)n2)c1OC [Compound 9II] |
| ≥ 500 | CCC(=O)c1cnc(Nc2ccc(C(C)N(C)C)cn2)cc1Nc1cccc(-c2ncn(C)n2)c1OC (centres unmarked) [Compound 9I] |
| ≥ 500 | CCC(=O)c1cnc(Nc2ccc(CN3CC[C@@H](F)C3)cn2)cc1Nc1cccc(-c2ncn(C)n2)c1OC [Compound 9JJ] |
| ≥ 500 | CCC(=O)c1cnc(Nc2ccc([C@@H](C)N(C)C)cn2)cc1Nc1cccc(-c2ncn(C)n2)c1OC [Compound 9J] |
| ≥ 500 | CCC(=O)c1cnc(Nc2ccc(CN3CC[C@H](F)C3)cn2)cc1Nc1cccc(-c2ncn(C)n2)c1OC [Compound 9KK] |
| ≥ 500 | CCC(=O)c1cnc(Nc2ccc([C@H](C)N(C)C)cn2)cc1Nc1cccc(-c2ncn(C)n2)c1OC [Compound 9K] |

More lines, now with the values behind:

| Structure (SMILES) | IC50 [nM] |
| --- | --- |
| CCC(=O)c1cnc(Nc2cccc(CN3CCOCC3)n2)cc1Nc1cccc(-c2ncn(C)n2)c1OC [Compound 9HHHH] | ≥ 500 |
| CCC(=O)c1cnc(Nc2ccc(CN(C)C)nn2)cc1Nc1cccc(-c2ncn(C)n2)c1OC [Compound 9HHH] | ≥ 500 |
| CCC(=O)c1cnc(Nc2cc(CN3CCCC3)ccn2)cc1Nc1cccc(-c2ncn(C)n2)c1OC [Compound 9IIII] | 50 to 500 |
| CCC(=O)c1cnc(Nc2ccc(C(C)N)nn2)cc1Nc1cccc(-c2ncn(C)n2)c1OC (centres unmarked) [Compound 9III] | ≥ 500 |
| CCC(=O)c1cnc(Nc2cc(CN3CCCCC3)ccn2)cc1Nc1cccc(-c2ncn(C)n2)c1OC [Compound 9JJJJ] | 50 to 500 |
| CCC(=O)c1cnc(Nc2ccc(C(C)NC)nn2)cc1Nc1cccc(-c2ncn(C)n2)c1OC (centres unmarked) [Compound 9JJJ] | ≥ 500 |
| CCC(=O)c1cnc(Nc2cc(CN3CCOCC3)ccn2)cc1Nc1cccc(-c2ncn(C)n2)c1OC [Compound 9KKKK] | 50 to 500 |
| CCC(=O)c1cnc(Nc2ccc(C(C)N(C)C)nn2)cc1Nc1cccc(-c2ncn(C)n2)c1OC (centres unmarked) [Compound 9KKK] | ≥ 500 |
